Structures are written as SMILES.

Results on 1 compound are retold here after US4024277A, “Phosphoro-aminosulfenyl derivatives of benzofuran carbamates” (priority 1975, dated 1977).

A short description of data set [1]: Mammalian toxicity, 14-day LD50 in rats. To be noted: rat, in vivo, Wistar derived albino rats, method of Miller and Tainter. The source says:
The compounds of this invention are characterized by advantageous mammalian toxicity values when compared with values for related compounds. This is shown by comparative values obtained with Wistar derived albino rats in 14-day tests. The animals were fed, housed and watered in accordance with standard laboratory procedures. The 14-day LD50 determination was estimated in accord with the method of Miller and Tainter (Experimental Biology and Medicine, 57, pp. 261-264, 1944).

The test system of data set [2] is beetles, true bugs, aphids and acarids. To be noted: U.S. Pat. No. 3,474,171; cited from earlier work.

Consider `CNC(=O)Oc1cccc2c1OC(C)(C)C2` [carbofuran, 2,3-dihydro-2,2-dimethyl-7-benzofuranyl methyl-carbamate, reference compound], for which, in data set [1], the LD50 at 336 h turned out to be 12.2 mg/kg. Further, the “control of beetles, true bugs, aphids and acarids” value in data set [2] is “effective in control of beetles, true bugs, aphids and acarids”.
